From article PMC6171423, “Benzofuran–appended 4-aminoquinazoline hybrids as epidermal growth factor receptor tyrosine kinase inhibitors: synthesis, biological evaluation and molecular docking studies” (Journal of Enzyme Inhibition and Medicinal Chemistry, 2018) come the findings set out here.

Like-named read-outs stand apart in the source and are kept apart here.

Series [1] concerns colorectal adenocarcinoma (Caco-2) cells. The experiment in a line: cells. The settings on record: Homo sapiens, Caco-2, 48 h, read-out: Cancer cells LC50 Caco-2.
Procedure: (§5) The cytotoxic activities of the compounds were screened against the C3A/HepG2 human liver cells, human colorectal tumor (Caco-2) cells, the human lung carcinoma (A549) and the cervical cancer (HeLa) cells. The lethal concentration was determined using the 3–(4,5-dimethylthiazol)-2,5-diphenyl tetrazolium bromide (MTT) assay previously developed by Mosmann[20]. The cells were maintained in Dubelsco minimal essential medium (DMEM, Highveld Biological, South Africa) supplemented with 10% fetal calf serum (Adcock-Ingram, Midrand, South Africa) and sodium pyruvate for C3A liver cells. Cell suspensions were prepared from confluent monolayer cultures and plated at a density of 0.1 × 10^6 cells into each well of 96-well microtitre plates. For cell attachment, plates were incubated for 24 h at 37 °C in a 5% CO2 incubator prior to the exposure. The compounds were dissolved in DMSO (5 mg/mL) and appropriate dilutions were prepared, added to the wells and incubated for 48 h. Doxorubicin hydrochloride (Pfizer Laboratories, Sandton, South Africa) was used as a positive control while DMSO was the negative control. After incubation for 48 h, the wells were rinsed with 150 µL of phosphate buffered saline PBS (Sigma-Aldrich, GmBH, Schnelldorf, Germany) and 200 µL of fresh medium was dispensed into the wells. MTT was dissolved in PBS (30 µL) then added to each well and the contents were incubated for 4 h at 37 °C. The medium was removed and MTT formazan crystals were dissolved in 50 µL DMSO. The amount of MTT reduction was measured immediately by detecting the absorbance using a BioTek microplate reader (BioTek Synergy, Analytical and Diagnostic Products, Johannesburg, South Africa) at a wavelength of 570 nm. Each dilution of the test sample was assayed in quadruplicate and the experiments were repeated three times. The percentage of cell viability and the LC50 values for each compound tested were calculated as described before[10].
Series [2] concerns human lung cancer (A549) cells. The series is described as follows: cells. The settings on record: A549, 48 h, read-out: Cancer cells LC50 A549.
Procedure: as §5
Another series addresses human EGFR (EGFR-TK) (Homo sapiens, UniProt P00533). The experiment in a line: Inhibition of EGFR-TK (ELISA).
The subject of series [3] is hepatocellular carcinoma (C3A; HepG2/C3A) cells. The series is described as follows: cells. The settings on record: Homo sapiens, 48 h.
Procedure: as §5
Series [4] has as its system cervical cancer (HeLa) cells. The series is described as follows: cells. The settings on record: Homo sapiens, 48 h, read-out: Cancer cells LC50 HeLa.
Procedure: as §5
Series [5] concerns Human Caspase-3 (Asp175) activity in C3A cells. The series is described as follows: Caspase-3 colorimetric assay, C3A. It counts as cell-based. The settings on record: 24 h, Gefitinib as reference. On the procedure: (§1) Caspase-3 activity was detected by means of Caspase-3 Colorimetric Assay Kit (Abcam, Cambridge, MA, USA). The cells were cultured in 24 well plates and treated for 24 h. The cells were then washed with PBS buffer and lysed on ice. The experiments were carried out according to the manufacturer’s instructions. Optical density was measured at absorbance of 450 nm using the BioTek microplate reader. The concentration of active Caspase-3 (Asp 175) were measured in duplicates and interpolated from the active caspase-3 (Asp 175) standard curve and corrected for sample dilution.
(§2) A major biochemical feature of apoptosis is the activation of caspases (caspase-2, -3, -6, -7, -8, -9, and -10), which play a central role in the morphological changes associated with apoptosis. Activation of caspase-3, for example, is critically important for the induction of apoptotic pathways. Consequently, we evaluated compounds 10d and 10j for potential to induce caspase-3 activation in C3A and Caco-2 cells using Gefitinib as a reference standard (Figure 4).

Another series relates to C3A cells. The series is described as follows: Annexin V/PI apoptosis assay by flow cytometry, C3A. The settings on record: 5 and 12.5 µM, 24 h. It counts as cell-based, human. Here is the method: (§3) Apoptotic cells were quantified using flow cytometry. The C3A or Caco-2 cells were cultured in 24 well plates and each was then treated with compound 10d or 10j at concentrations 5, 12.5 and 25 µM against doxorubicin hydrochloride (0.20 µM) as a reference standard, respectively. After the cells were incubated for 24 h, both treated and untreated cells were harvested, washed two times with ice PBS and then adjusted at a density of 1 x 10^6 cells/sample. Cells were harvested and transferred into plastic flow tubes (BD Biosciences, South Africa). The cells were, in turn, stained with Annexin-V-FUOS staining kit (Roche, Mannheim, Germany) according to the manufacturer’s instructions. The cells were analyzed using Becton, Dickinson and Company FACS Accuri flow cytometer.
(§4) We selected compounds 10d and 10j to evaluate whether they induce apoptosis in the C3A and Caco-2 cell lines against doxorubicin hydrochloride as a reference standard, respectively. The population of apoptotic cells was determined by means of Annexin-V and propium iodide (PI) double staining by flow cytometry, which is a useful tool for evaluation of molecular and morphological events that take place during cell death and cell proliferation. […]
A general note: Flow cytometry measures light scatter and fluorescence of single cells or particles in a stream.

Another series deals with Caco-2 cells. The experiment in a line: Annexin V/PI apoptosis assay by flow cytometry, Caco-2. It counts as cell-based, human. The settings on record: 5 and 12.5 µM, 24 h. Here is the method: as §3, §4
The test system of series [6] is Human Caspase-3 (Asp175) activity in Caco-2 cells. The experiment in a line: Caspase-3 colorimetric assay, Caco-2. The format is cell-based. The settings on record: 24 h, Gefitinib as reference. On the procedure:
as §1, §2

In series [7] the test system is hepatocellular carcinoma (C3A; HepG2/C3A) cells. The settings on record: human, 48 h.
Procedure: as §5
The mark [8] stands for this setting: read-out: Cancer cells LC50 C3A.
The mark [9] stands for this setting: read-out: IC50 against EGFR-TK, ELISA, purified EGFR.

Chain of human EGFR (EGFR-TK) (P00533 25-1210): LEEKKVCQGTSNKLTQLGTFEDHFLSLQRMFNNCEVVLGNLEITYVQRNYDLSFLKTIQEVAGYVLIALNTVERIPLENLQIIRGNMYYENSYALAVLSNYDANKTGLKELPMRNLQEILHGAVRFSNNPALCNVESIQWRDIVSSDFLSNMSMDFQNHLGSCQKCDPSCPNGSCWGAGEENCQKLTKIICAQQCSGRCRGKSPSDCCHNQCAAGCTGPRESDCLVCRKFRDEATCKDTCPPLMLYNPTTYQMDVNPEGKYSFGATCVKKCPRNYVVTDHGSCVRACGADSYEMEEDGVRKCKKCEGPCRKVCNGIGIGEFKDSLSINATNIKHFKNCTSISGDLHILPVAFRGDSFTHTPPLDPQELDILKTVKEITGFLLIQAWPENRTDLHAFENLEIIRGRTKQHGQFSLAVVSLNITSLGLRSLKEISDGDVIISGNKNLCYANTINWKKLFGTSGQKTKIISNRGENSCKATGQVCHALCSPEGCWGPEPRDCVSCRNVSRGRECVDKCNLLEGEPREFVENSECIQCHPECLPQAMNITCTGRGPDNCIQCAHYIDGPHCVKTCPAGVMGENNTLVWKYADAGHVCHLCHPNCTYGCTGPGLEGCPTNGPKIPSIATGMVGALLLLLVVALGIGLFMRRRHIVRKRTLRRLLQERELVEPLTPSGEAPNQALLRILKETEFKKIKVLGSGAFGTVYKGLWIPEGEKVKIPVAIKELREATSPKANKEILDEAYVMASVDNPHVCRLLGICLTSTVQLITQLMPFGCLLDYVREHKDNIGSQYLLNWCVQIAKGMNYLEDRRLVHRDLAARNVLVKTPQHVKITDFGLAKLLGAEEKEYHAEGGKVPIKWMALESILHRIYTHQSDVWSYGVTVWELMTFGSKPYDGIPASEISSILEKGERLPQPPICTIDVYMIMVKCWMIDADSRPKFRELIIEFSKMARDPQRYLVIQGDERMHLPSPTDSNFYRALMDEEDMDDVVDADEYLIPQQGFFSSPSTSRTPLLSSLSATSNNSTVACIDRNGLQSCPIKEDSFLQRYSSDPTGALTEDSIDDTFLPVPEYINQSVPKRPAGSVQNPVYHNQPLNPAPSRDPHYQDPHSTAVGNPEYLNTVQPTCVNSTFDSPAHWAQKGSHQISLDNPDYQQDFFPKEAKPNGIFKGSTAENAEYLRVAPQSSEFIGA

On to `Fc1ccc(-c2nc(Nc3cc(Br)cc4cc(-c5ccccc5)oc34)c3cc(Br)ccc3n2)cc1` [Compound 10a, 6-Bromo-N-(5-bromo-2-phenylbenzofuran-7-yl)-2–(4-fluorophenyl)quinazolin-4-amine], for which the CC50 in [1] was 96.3 ± 0.1 µM; in series [2] it was 64.7 ± 0.11 µM; in [3] (setting [8]) it was 81 ± 0.03 µM; in series [4], 17.6 ± 0.39 µM. In addition, the IC50 – broadly, the concentration that gives 50% inhibition – against human EGFR (EGFR-TK) amounted to 0.1113 ± 0.00042 µM.

For `Fc1ccc(-c2nc(Nc3cc(Br)cc4cc(-c5cccc(F)c5)oc34)c3cc(Br)ccc3n2)cc1` [Compound 10b, 6-Bromo-N-(5-bromo-2–(3-fluorophenyl)benzofuran-7-yl)-2–(4-fluorophenyl)quinazolin-4-amine], the CC50 in series [1] worked out at 83.9 ± 0.07 µM; in [2], 54.3 ± 0.19 µM; in [3] (setting [8]), 90.1 ± 0.02 µM; in series [4] it was 47 ± 0.38 µM. In addition, at human EGFR (EGFR-TK) (setting [9]), the IC50 was found to be 0.1225 ± 0.0005 µM.

With `Fc1ccc(-c2nc(Nc3cc(Br)cc4cc(-c5ccc(F)cc5)oc34)c3cc(Br)ccc3n2)cc1` [Compound 10c, 6-Bromo-N-(5-bromo-2–(4-fluorophenyl)benzofuran-7-yl)-2–(4-fluorophenyl)quinazolin-4-amine], the CC50 in [1] was 98.8 ± 0.02 µM; in [2] it was 52.6 ± 0.2 µM; in series [3] (setting [8]) it was greater than 100 µM; in [4], 11.4 ± 0.56 µM. Moreover, the half-inhibitory concentration (IC50) on human EGFR (EGFR-TK) stood at 0.0522 ± 0.00018 µM.

For `Fc1ccc(-c2nc(Nc3cc(Br)cc4cc(-c5cccc(Cl)c5)oc34)c3cc(Br)ccc3n2)cc1` [Compound 10d, 6-Bromo-N-(5-bromo-2–(3-chlorophenyl)benzofuran-7-yl)-2–(4-fluorophenyl)quinazolin-4-amine], the CC50 in series [1] is 47.7 ± 0.01 µM; in series [2], 65.1 ± 0.12 µM; in series [3] (setting [8]), 9 ± 0.01 µM; in series [4], 22.1 ± 1.1 µM. Further, the caspase-3 activation entry in series [5] was “induce apoptosis through activation of caspase-3”. Further, at human EGFR (EGFR-TK) (setting [9]), the IC50 amounted to 0.0293 ± 2e-05 µM. Besides, the induction of apoptosis result in the series on C3A cells is “induced apoptosis”.

Consider `Fc1ccc(-c2nc(Nc3cc(Br)cc4cc(-c5ccc(OC(F)(F)F)cc5)oc34)c3cc(Br)ccc3n2)cc1` [Compound 10e, 6-Bromo-N-(5-bromo-2–(4-(trifluoromethoxy)phenyl)benzofuran-7-yl)-2–(4-fluorophenyl) quinazolin-4-amine], for which the CC50 was 65.2 ± 0.1 µM in series [1], 97.6 ± 0.07 µM in [2], greater than 100 µM in [3] (setting [8]) and 23.4 ± 0.49 µM in series [4]. At human EGFR (EGFR-TK) (setting [9]), the IC50 was 0.0311 ± 0.00012 µM.

With `Clc1ccc(-c2nc(Nc3cc(Br)cc4cc(-c5ccccc5)oc34)c3cc(Br)ccc3n2)cc1` [Compound 10f, 6-Bromo-N-(5-bromo-2-phenylbenzofuran-7-yl)-2–(4-chlorophenyl)quinazolin-4-amine], the CC50 came to 75 ± 0.02 µM in [1], 48 ± 0.1 µM in series [2], 73.9 ± 0.02 µM in [3] (setting [8]) and 15.4 ± 0.45 µM in [4].

For the compound `Fc1cccc(-c2cc3cc(Br)cc(Nc4nc(-c5ccc(Cl)cc5)nc5ccc(Br)cc45)c3o2)c1` [Compound 10g, 6-Bromo-N-(5-bromo-2–(3-fluorophenyl)benzofuran-7-yl)-2–(4-chlorophenyl)quinazolin-4-amine], the CC50 in [1] worked out at 94.4 ± 0.02 µM; in [2], 78.5 ± 0.15 µM; in [3] (setting [8]), 79.1 ± 0.01 µM; in [4], 53.5 ± 4.46 µM. Also, the IC50 at human EGFR (EGFR-TK) (setting [9]) is 0.1329 ± 0.00055 µM.

In the case of `Fc1ccc(-c2cc3cc(Br)cc(Nc4nc(-c5ccc(Cl)cc5)nc5ccc(Br)cc45)c3o2)cc1` [Compound 10h, 6-Bromo-N-(5-bromo-2–(4-fluorophenyl)benzofuran-7-yl)-2–(4-chlorophenyl)quinazolin-4-amine], the CC50 in [1] is 49.1 ± 0.01 µM; in series [2] it was 74.1 ± 0.21 µM; in series [3] (setting [8]) it was greater than 100 µM; in series [4], 28.6 ± 1.12 µM. At human EGFR (EGFR-TK) (setting [9]), the IC50 came to 0.1257 ± 0.00052 µM.

With `Clc1ccc(-c2nc(Nc3cc(Br)cc4cc(-c5cccc(Cl)c5)oc34)c3cc(Br)ccc3n2)cc1` [Compound 10i, 6-Bromo-N-(5-bromo-2–(3-chlorophenyl)benzofuran-7-yl)-2–(4-chlorophenyl)quinazolin-4-amine], the CC50 in series [1] came to 33.5 ± 0.1 µM; in series [2], 86.6 ± 0.16 µM; in series [3] (setting [8]), 68.2 ± 0.02 µM; in series [4], 75.1 ± 5.25 µM. Also, at human EGFR (EGFR-TK) (setting [9]), the IC50 was found to be 0.0902 ± 0.00034 µM.

Consider `FC(F)(F)Oc1ccc(-c2cc3cc(Br)cc(Nc4nc(-c5ccc(Cl)cc5)nc5ccc(Br)cc45)c3o2)cc1` [Compound 10j, 6-Bromo-N-(5-bromo-2–(4-(trifluoromethoxy)phenyl)benzofuran-7-yl)-2–(4-chlorophenyl) quinazoline-4-amine], for which the CC50 in series [1] was 18.4 ± 0.07 µM; in series [2], 47.4 ± 0.07 µM; in series [3] (setting [8]), greater than 100 µM; in series [4] it was 28.1 ± 0.79 µM. Moreover, the induction of apoptosis entry with Caco-2 cells is “induced apoptosis”. In addition, the IC50 at human EGFR (EGFR-TK) (setting [9]) is 0.0615 ± 1e-05 µM. Also, in series [6], the caspase-3 activation entry is “induce apoptosis through activation of caspase-3”.

For the compound `COc1cc2ncnc(Nc3ccc(F)c(Cl)c3)c2cc1OCCCN1CCOCC1` [Gefitinib, reference compound], the CC50 was 51.3 ± 0.17 µM in [2]; 5.01 µM in series [3] (read-out: Cancer cells LC50 C3A, MTT, 48 h, C3A); 5 ± 0.04 µM in [7]; 98.8 ± 0.56 µM in series [4].
